Experimental data as given in patent US20160367622A1, “AGONISTS OF GUANYLATE CYCLASE USEFUL FOR THE TREATMENT OF OPIOID INDUCED DYSFUNCTIONS” (priority 2013, published 2016).
“Also recorded” adds a separate entry of the source. Positions of bridges follow the written chain, without caps; N, C: chain ends. Non-standard residues stand in square brackets, D forms with d. Residues, ends and D or L forms follow the SMILES beside them.

Legend:
[1] = tested on: female Sprague-Dawley CD rats; test: GI transit delay induced by repeated methadone administration in rats; format: in vivo, rat; settings: SP-333 oral daily
Description: The ability of SP-333 to alleviate GI transit delay induced by repeated methadone administration was also evaluated in the similar manner. Female Sprague-Dawley CD rats 7 to 8 weeks of age (n=7/group) received via IP injection 16 doses of methadone (once daily; 7 doses @ 5 mg/kg and 9 doses @ 2.5 mg/kg). Ten minutes following each methadone dose, each group received an oral gavage of vehicle, 2.5, and 5 mg/kg of SP-333. At the end of the dosing regimen, animals were fasted overnight and GI transit was evaluated as described above.

[2] = tested on: female Sprague-Dawley CD rats; test: methadone-induced constipation in rats (fecal output); format: in vivo, rat
Description: To identify the methadone dose that induces constipation in rats, female Sprague-Dawley CD rats 7 to 8 weeks of age (n=6/group) were administered 0 (vehicle), 2.5, 5, and 7.5 mg/kg of methadone (1.5 ml/kg dose volume) by IP injection once a day for 5 days. Fecal pellets were collected at 4 h intervals during the light cycle and average number of pellets was recorded for each group during the course of the study following daily dose administrations of methadone.
To evaluate the ability of SP-333 to relieve methadone-induced constipation, female Sprague-Dawley CD rats 7 to 8 weeks of age (n=7/group) were administered 5 mg/kg of methadone (or vehicle) each day for 7 days via IP injection to induce constipation. Ten minutes following the IP dose each day, an oral gavage of 2.5, and 5 mg/kg of SP-333 or vehicle (buffer) was administered. Fecal pellets were collected at 4 h intervals during the light cycle and average number of pellets recorded for each group during the course of the study following daily administration of vehicle, methadone or combination of methadone and SP-333.

[3] = tested on: patients with symptoms of OIC treated for non-malignant chronic pain with opioid therapy; test: randomized 4-week placebo-controlled dose-ranging study in OIC: safety; format: in vivo, human; settings: for All AEs: preliminary safety top line
Source text: A Randomized, 4-Week, Double-Blind, Placebo-Controlled, Dose-Ranging Study to Assess the Safety and Efficacy of Sp-333 for the Treatment of Opioid-Induced Constipation (OIC) in Patients with Non-Malignant Chronic Pain Receiving Opioid Therapy
To assess the safety and tolerability of SP-333. To evaluate the pharmacodynamic effects of SP-333. To evaluate the pharmacokinetic properties of SP-333.
The primary efficacy endpoint was to determine the mean change from baseline in the number of […] (SBMs) during Week 4 of the Treatment Period. Safety was assessed by analysis of the frequency of treatment-emergent adverse events (TEAEs), adverse events leading to withdrawal, and serious adverse events (SAEs).

[4] = tested on: female Sprague-Dawley rats; test: methadone-induced delay in rat GI transit (charcoal meal); format: in vivo; settings: 2.5 mg/kg methadone IP
Description: Animals: All study procedures were conducted under a study outline approved by the Institutional Animal Care and Use Committee of MB Research Labs (Spinnerstown, Pa.) or Lampire Biological Laboratories (Pipersville, Pa.). Seven to eight week old female Sprague-Dawley rats [Crl:CD(SD)], weighing between ˜180-210 grams, were obtained from Charles River Laboratories and allowed to acclimate for a week. Animals were maintained on a 12 hour light-dark cycle. For intestinal tissue collection and evaluation of GI transit, rats were fasted for at least 18 hours before the experiment, with free access to water.
The ability of opioids to delay GI transit in rats was tested by either administering 0 (vehicle) 0.25, 1 and 2.5 mg/kg of morphine or 0 (vehicle), 0.25, 2.5 and 5 mg/kg of methadone (1.5 ml/kg dose volume) by IP injection. Water served as vehicle control. Ten minutes later, a 2 mL charcoal meal consisting of 10% activated charcoal (Sigma-Aldrich, St. Louis, Mo.) and 10% gum Arabic (Sigma-Aldrich, St. Louis, Mo.) in water was administered via oral gavage. Rats were euthanized 10 min after the charcoal meal via IP injection of 150 mg/kg Beuthanasia-D solution (sodium pentobarbital, 390 mg/mL). The small intestine was removed and the total length from the pyloric sphincter to the ileocecal junction was recorded, as well as the distance traveled by the leading edge of the charcoal. Intestinal transit was determined by calculating the ratio (expressed as a percentage) of the distance between the pyloric sphincter and the leading edge of the charcoal to the distance between the pyloric sphincter and the ileocecal junction.
To evaluate the ability of SP-333 to reverse methadone induced delayed GI transit, animals were administered 2.5 mg/kg of methadone by IP injection. Ten minutes later, an oral gavage of 0 (vehicle), 0.1, 0.5, 2.5, 5 and 50 mg/kg of SP-333 (1.5 ml/kg dose volume) was administered followed immediately by a 2 mL oral gavage of the charcoal meal. Ten minutes after the charcoal meal, animals were euthanized and intestinal transit was calculated as described above.

[5] = tested on: female Sprague-Dawley CD rats; test: methadone-induced constipation in rats (fecal output); format: in vivo, rat; settings: methadone 2.5 mg/kg IP daily 9 days; SP-333 2.5, 5.0 and 10 mg/kg oral daily
[6] = tested on: opioid naïve animals (rats); test: GI transit after single oral gavage dose in opioid naïve rats; format: in vivo, rat

Structure (SMILES): CC(C)C[C@@H]1NC(=O)[C@H](CCC(=O)O)NC(=O)[C@@H](NC(=O)[C@H](CCC(=O)O)NC(=O)[C@H](CC(=O)O)NC(=O)[C@H](N)CC(N)=O)CSSC[C@@H]2NC(=O)[C@H](C)NC(=O)[C@H](C(C)C)NC(=O)[C@H](CC(N)=O)NC(=O)[C@H](C(C)C)NC(=O)[C@H](CSSC[C@@H](C(=O)N[C@H](CC(C)C)C(=O)O)NC(=O)CNC(=O)[C@H]([C@@H](C)O)NC2=O)NC1=O [SP-333, dAsn^1-Asp^2-Glu^3-Cys^4-Glu^5-Leu^6-Cys^7-Val^8-Asn^9-Val^10-Ala^11-Cys^12-Thr^13-Gly^14-Cys^15-dLeu^16] (H-[dN]DECELCVNVACTGC[dL]-OH; disulfide 4-12, 7-15)
- increase in Isc (T84 cells monolayer; 0.01-10 μM at mucosal surface of T84 cells): concentration-dependent increase in Isc approaching saturation at 10 μM
- stimulation of Isc (T84 cells monolayer; treatment from the basolateral chamber, T84 monolayer): did not stimulate Isc
- increase in Isc (rat jejunum tissue; 0.01-10 μM at mucosal surface of rat jejunum): concentration-dependent increase in Isc approaching saturation at 10 μM
- stimulation of Isc (rat jejunum tissue; treatment from the basolateral chamber, rat jejunum tissues): did not stimulate Isc
- GI-transit delay caused by repeated methadone dosing ([1]; 16 daily methadone doses (7 at 5 mg/kg, 9 at 2.5 mg/kg)): normalized GI transit; also recorded: relieved the GI-transit delay; also recorded: relieves methadone-induced GI transit delay; also recorded: statistically significant improvement in GI transit delay
- GI-transit delay caused by repeated methadone dosing ([1]; methadone 2.5 mg/kg IP daily 9 days): relieved the GI-transit delay
- pellet count compared to the methadone dosed group ([2]; SP-333 2.5 mg/kg oral daily 10 min after methadone (5 mg/kg 7 days, then 2.5 mg/kg days 8-16)): threefold increase; also recorded: significantly relieved methadone-induced constipation
- average number of pellets / fecal output compared to the methadone dosed group ([2]; SP-333 2.5 and 5 mg/kg oral daily after methadone (5 mg/kg 7 days, then 2.5 mg/kg days 8-16)): partially restored fecal output; also recorded: higher compared to the methadone dosed group
- Diarrhea ([3]; 1 mg (n 74)): 3 (4%) n (%)
- Diarrhea Drop ([3]; 1 mg (n 74)): 0 (0%) n (%)
- Drops for AE ([3]; 1 mg (n 74)): 1 (1.4%) n (%)
- All AEs ([3]; 1 mg (n 74)): 19 (25.7%) n (%)
- patients with TEAE leading to study treatment discontinuation ([3]; 1 mg group): 1.4%
- Diarrhea ([3]; 3 mg (n 70)): 4 (5.4%) n (%)
- Diarrhea Drop ([3]; 3 mg (n 70)): 0 (0%) n (%)
- Drops for AE ([3]; 3 mg (n 70)): 2 (2.9%) n (%)
- serious adverse events: Chest Pain ([3]; 3 mg (n 70)): 1 (1.4%) n (%)
- All AEs ([3]; 3 mg (n 70)): 16 (22.9%) n (%)
- patients with TEAE leading to study treatment discontinuation ([3]; 3 mg group): 2.9%
- Diarrhea ([3]; 6 mg (n 72)): 7 (9.7%) n (%)
- Diarrhea Drop ([3]; 6 mg (n 72)): 2 (2.9%) n (%)
- Drops for AE ([3]; 6 mg (n 72)): 5 (6.9%) n (%)
- serious adverse events: Death (metastatic HCC) ([3]; 6 mg (n 72)): 1 (1.4%) n (%)
- All AEs ([3]; 6 mg (n 72)): 23 (31.9%) n (%)
- patients with TEAE leading to study treatment discontinuation ([3]; 6 mg group): 6.9%
- percentage of patients experiencing at least 1 TEAE ([3]; SP-333 1 mg (placebo 27.4%)): 25.7%
- percentage of patients experiencing at least 1 TEAE ([3]; SP-333 3 mg (placebo 27.4%)): 22.9%
- percentage of patients experiencing at least 1 TEAE ([3]; SP-333 6 mg (placebo 27.4%)): 31.9%
- most frequently reported TEAE ([3]; in vivo): diarrhea
- GI transit in methadone-treated rats ([4]; then SP-333 0.5 mg/kg oral gavage): 40%
- GI transit in methadone-treated rats ([4]; then SP-333 2.5 mg/kg oral gavage): 39%
- GI transit in methadone-treated rats ([4]; then SP-333 5 mg/kg oral gavage): 44%
- GI transit in methadone-treated rats ([4]; then SP-333 50 mg/kg oral gavage): 52%
- average number of pellets compared to the methadone dosed group [5]: higher compared to the methadone dosed group
- increase in small intestinal (GI) transit compared to vehicle controls ([6]; 0.05 mg/kg single oral gavage): 5.6%
- increase in small intestinal (GI) transit compared to vehicle controls ([6]; 0.5 mg/kg single oral gavage): 13%
- increase in small intestinal (GI) transit compared to vehicle controls ([6]; 5 mg/kg single oral gavage): 23%
